Tests used:
Rattus norvegicus [1] = assay: Analgesic activity in Rattus norvegicus Wistar albino (rat) at 20 mg/kg, ip measured at 30 min by tail immersion method relative to control; assay type: functional; conditions: route intraperitoneal
Rattus norvegicus [2] = assay: Anti-inflammatory activity in Rattus norvegicus Wistar albino (rat) assessed as inhibition of carrageenan-induced hind paw edema at 10 mg/kg, po measured at 4 hr relative to control; assay type: functional
Rattus norvegicus [3] = assay: Anti-inflammatory activity in Rattus norvegicus Wistar albino (rat) assessed as inhibition of carrageenan-induced hind paw edema at 10 mg/kg, po measured at 3 hr relative to control; assay type: functional
Rattus norvegicus [4] = assay: Ulcerogenic activity in Rattus norvegicus Wistar albino (rat) stomach assessed as ulcer index at 30 mg/kg, po measured after 17 hr relative to control; assay type: toxicity, organism-based; design: dose 30 mg/kg, route oral; conditions: in vivo
Rattus norvegicus [5] = assay: Antioxidant activity in Rattus norvegicus Wistar albino (rat) stomach assessed as decrease in malondialdehyde content measured per 100 mg of tissue at 30 mg/kg, po after 60 min by spectrophotometric analysis (reference value: 3.86 +/- 0.19 nmol); assay type: functional

Cc1nn(-c2ccccc2)c(Cl)c1/C=N/NC(=O)c1ccc([N+](=O)[O-])cc1
Activity (Rattus norvegicus [1]): 92.8%
inhibition in vivo at 10 mg/kg (Rattus norvegicus [2]): 54.4%
inhibition in vivo at 10 mg/kg (Rattus norvegicus [3]): 12.1%

Cc1nn(-c2ccccc2)c(Cl)c1/C=N/NC(=O)c1ccc(Cl)cc1Cl
Activity (Rattus norvegicus [1]): 172.6%
inhibition in vivo at 10 mg/kg (Rattus norvegicus [2]): 74.7%
inhibition in vivo at 10 mg/kg (Rattus norvegicus [3]): 51.5%

Cc1nn(-c2ccccc2)c(Cl)c1/C=N/NC(=O)COc1ccccc1
UI (Rattus norvegicus [4]): 0.41

Cc1nn(-c2ccccc2)c(Cl)c1/C=N/NC(=O)c1ccc(F)cc1
Activity (Rattus norvegicus [1]): 187.8%
inhibition in vivo at 10 mg/kg (Rattus norvegicus [2]): 67.1%
inhibition in vivo at 10 mg/kg (Rattus norvegicus [3]): 36.4%

Cc1nn(-c2ccccc2)c(Cl)c1/C=N/NC(=O)c1ccc(Cl)cc1
Activity (Rattus norvegicus [1]): 160.4%
inhibition in vivo at 10 mg/kg (Rattus norvegicus [2]): 63.3%
Activity (Rattus norvegicus [5]): 4.51 nmol
UI (Rattus norvegicus [4]): 0.25
inhibition in vivo at 10 mg/kg (Rattus norvegicus [3]): 42.4%

Cc1nn(-c2ccccc2)c(Cl)c1/C=N/NC(=O)Cc1cccc2ccccc12
Activity (Rattus norvegicus [1]): 116.3%
inhibition in vivo at 10 mg/kg (Rattus norvegicus [2]): 55.7%
inhibition in vivo at 10 mg/kg (Rattus norvegicus [3]): 42.4%

Cc1nn(-c2ccccc2)c(Cl)c1/C=N/NC(=O)Cc1ccc(Cl)cc1
Activity (Rattus norvegicus [1]): 193.1%
inhibition in vivo at 10 mg/kg (Rattus norvegicus [2]): 70.9%
inhibition in vivo at 10 mg/kg (Rattus norvegicus [3]): 57.6%

Cc1nn(-c2ccccc2)c(Cl)c1/C=N/NC(=O)c1ccccc1Cl
Activity (Rattus norvegicus [1]): 149%

Cc1nn(-c2ccccc2)c(Cl)c1/C=N/NC(=O)c1ccc(Br)cc1
Activity (Rattus norvegicus [1]): 158.7%

O=C(O)Cc1ccccc1Nc1c(Cl)cccc1Cl [DICLOFENAC]
Activity (Rattus norvegicus [1]): 749.3%

COc1ccc2c(c1)c(CC(=O)O)c(C)n2C(=O)c1ccc(Cl)cc1 [INDOMETHACIN]
inhibition in vivo at 10 mg/kg (Rattus norvegicus [2]): 77.2%
Activity (Rattus norvegicus [5]): 21.98 nmol
UI (Rattus norvegicus [4]): 4.5
inhibition in vivo at 10 mg/kg (Rattus norvegicus [3]): 48.5%

From ChEMBL document CHEMBL3045791, “Pharmacological screening for anti-inflammatory, analgesic activity of pyrazolyl derivatives along with molecular docking studies” (Med Chem Res, 2012)
